Measurements as given in US20230124095A1 (AMORPHICAL LTD., priority 2020, published 2023).

Tested on: Cathepsin B
Experiment: Cathepsin B activity in lysate of LNCaP clone FGC cells
Format: cell-based, human
Conditions: 4 passages in supplemented medium

[Ca+2].[Cl-].[Cl-] [CaCl2, calcium chloride]
reduction of Cathepsin B activity compared to untreated control: 16%
